This is an account of results in patent US10316017B2, “COT modulators and methods of use thereof” (Gilead Sciences, Inc., priority 2015, dated 2019).

pEC50, pIC50: −log10 of the molar value.

Assay [1] deals with TNFα production in LPS-stimulated human monocytes. Put plainly: Cot Monocyte TNFα Cell Based Assay. To be noted: Homo sapiens, Monocyte, TNFα in LPS-stimulated human monocytes; read-out: EC50 TNF. A digest of the protocol: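 Percent-of-control values derive from TR-FRET ratios of TNFα in spun-down media, referenced to unstimulated and LPS-stimulated wells. Exposure: 1 h compound preincubation, then 50 pg/ml LPS for 4 h, both at 37 °C, with 0.5% final DMSO.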

In assay [2] the target is T1, human Cot catalytic domain (30-397 amino acids) (Homo sapiens, UniProt P41279).
T1 construct: Purified recombinant human Cot catalytic domain (30-397 amino acids) was purchased from Cama Biosciences; purchased Cama Biosciences (so in the source)
T1 sequence (P41279 30-397): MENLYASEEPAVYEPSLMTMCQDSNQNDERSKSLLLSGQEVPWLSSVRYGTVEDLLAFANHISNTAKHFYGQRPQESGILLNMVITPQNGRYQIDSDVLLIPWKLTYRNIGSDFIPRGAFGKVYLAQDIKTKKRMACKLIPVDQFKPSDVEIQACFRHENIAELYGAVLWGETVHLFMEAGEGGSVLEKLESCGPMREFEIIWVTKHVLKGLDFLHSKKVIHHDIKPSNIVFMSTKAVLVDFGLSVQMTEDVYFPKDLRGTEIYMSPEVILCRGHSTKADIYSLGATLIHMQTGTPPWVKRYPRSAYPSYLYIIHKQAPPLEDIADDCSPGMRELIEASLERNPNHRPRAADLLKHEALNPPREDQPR
Put plainly: High Throughput Cot Biochemical Assay (KinEASE TR-FRET). To be noted: Cot KinEASE TR-FRET (HTRF) biochemical assay, 400 μM ATP; read-out: IC50 HTRF. In outline: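 Phosphorylation of 1 μM XL665-STK3 peptide by 5 nM Cot catalytic domain was measured by time-resolved FRET using a europium […] antibody. ATP was 400 μM; buffer was 10 mM MOPS pH 7.0 with Mg2+ and DTT.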
On the technique in general: TR-FRET usually uses a lanthanide donor and a delayed reading to cut background.

Take `N#Cc1cnc2c(Cl)cc(N[C@@H](c3ccc(F)cc3)c3cn(-c4ccccc4C(F)(F)F)nn3)cc2c1Nc1cnc(F)c(F)c1` [Example 336, (S)-8-chloro-4-((5,6-difluoropyridin-3-yl)amino)-6-(((4-fluorophenyl)(1-(2-(trifluoromethyl)phenyl)-1H-1,2,3-triazol-4-yl)methyl)amino)quinoline-3-carbonitrile]: the pEC50 (commonly −log10 of the EC50, conventionally taken in molar units) in assay [1] is 6.21. In addition, the pIC50 – broadly, the negative decadic logarithm of the IC50, by convention in mol/L – in assay [2] was 7.15.

With `N#Cc1cnc2c(Cl)cc(N[C@@H](c3ccc(F)cc3)c3cn(-c4ccccc4F)nn3)cc2c1Nc1cnc(F)c(F)c1` [Example 337, (S)-8-chloro-4-((5,6-difluoropyridin-3-yl)amino)-6-(((4-fluorophenyl) (1-(2-fluorophenyl)-1H-1,2,3-triazol-4-yl)methyl)amino)quinoline-3-carbonitrile], the pEC50 in assay [1] is 6.17. In addition, in assay [2], the pIC50 is 7.31.

For `[2H][C@](Nc1cc(Cl)c2ncc(C#N)c(Nc3cnc(F)c(Cl)c3)c2c1)(c1ccc(F)cc1)c1cn(C2CC2)nn1` [Example 338, (S)-8-chloro-4-((5-chloro-6-fluoropyridin-3-yl)amino)-6-(((1-cyclopropyl-1H-1,2,3-triazol-4-yl)(4-fluorophenyl)methyl-d)amino)quinoline-3-carbonitrile], in assay [1], the pEC50 is 6.74. In assay [2], the pIC50 was 8.10.

As to `[2H][C@](Nc1cc(Cl)c2ncc(C#N)c(Nc3cncc(F)c3)c2c1)(c1ccc(F)cc1)c1cn(C(C)C)nn1` [Example 339, (S)-8-chloro-6-(((4-fluorophenyl)(1-isopropyl-1H-1,2,3-triazol-4-yl)methyl-d)amino)-4-((5-fluoropyridin-3-yl)amino)quinoline-3-carbonitrile], in assay [1], the pEC50 was 5.93. The pIC50 in assay [2] was 7.26.

As to `[2H][C@](Nc1cc(Cl)c2ncc(C#N)c(N[C@H](CC)c3ccccc3)c2c1)(c1cccc(C#N)c1)c1cn(C2CC2)nn1` [Example 340, 8-chloro-6-(((S)-(3-cyanophenyl)(1-cyclopropyl-1H-1,2,3-triazol-4-yl)methyl-d)amino)-4-(((R)-1-phenylpropyl)amino)quinoline-3-carbonitrile], the pEC50 in assay [1] is 7.24. The negative logarithm of the IC50 (pIC50) in assay [2] was 8.70.

With `[2H][C@](Nc1cc(Cl)c2ncc(C#N)c(NCC(C)(C)C)c2c1)(c1cccc(C#N)c1)c1cn(C2CC2)nn1` [Example 341, (S)-8-chloro-6-(((3-cyanophenyl)(1-cyclopropyl-1H-1,2,3-triazol-4-yl)methyl-d)amino)-4-(neopentylamino)quinoline-3-carbonitrile], the pEC50 in assay [1] was 7.15. The pIC50 in assay [2] was 9.00.

As for `[2H][C@](Nc1cc(Cl)c2ncc(C#N)c(Nc3cnc(F)c(F)c3)c2c1)(c1ccc(F)cc1)c1cn(Cc2ccccc2)nn1` [Example 342, (S)-6-(((1-benzyl-1H-1,2,3-triazol-4-yl)(4-fluorophenyl)methyl-d)amino)-8-chloro-4-((5,6-difluoropyridin-3-yl)amino)quinoline-3-carbonitrile], the pEC50 in assay [1] was 5.91. Further, in assay [2], the pIC50 is 7.19.

Take `[2H][C@@](Nc1cc(Cl)c2ncc(C#N)c(NCC(C)(C)C)c2c1)(c1cn(C2CC2)nn1)c1ccccc1Cl` [Example 343, (S)-8-chloro-6-(((2-chlorophenyl)(1-cyclopropyl-1H-1,2,3-triazol-4-yl)methyl-d)amino)-4-(neopentylamino) quinoline-3-carbonitrile]: the pEC50 in assay [1] is 6.82. In assay [2], the pIC50 is 7.89.

With `[2H]C(Nc1cc(Cl)c2ncc(C#N)c(NCC(C)(C)C)c2c1)(c1ccc(F)cc1)c1cn(C2CC2)cn1` (stereo not shown) [Example 344, 8-chloro-6-(((1-cyclopropyl-1H-imidazol-4-yl)(4-fluorophenyl)methyl-d)amino)-4-(neopentylamino) quinoline-3-carbonitrile], the pEC50 in assay [1] was 5.65. In addition, the pIC50 in assay [2] is 7.05.

Consider `CC(C)CNc1c(C#N)cnc2c(Cl)cc(N[C@@H](c3ccc(F)cc3)c3cn(C4CC4)nn3)cc12` [Example 345, (S)-8-chloro-6-(((1-cyclopropyl-1H-1,2,3-triazol-4-yl)(4-fluorophenyl)methyl)amino)-4-(isobutylamino)quinoline-3-carbonitrile], for which, in assay [1], the pEC50 is 6.01. For the same compound, the pIC50 in assay [2] was 7.24.

As for `N#Cc1cnc2c(Cl)cc(N[C@@H](c3ccc(F)cc3)c3cn(C4CC4)nn3)cc2c1NCc1cncs1` [Example 346, (S)-8-chloro-6-(((1-cyclopropyl-1H-1,2,3-triazol-4-yl)(4-fluorophenyl)methyl)amino)-4-((thiazol-5-ylmethyl)amino)quinoline-3-carbonitrile], the pEC50 in assay [1] is 5.21. In assay [2], the pIC50 is 6.47.

For `N#Cc1cnc2c(Cl)cc(N[C@@H](c3ccc(F)cc3)c3cn(C4CC4)nn3)cc2c1NC(CC(F)(F)F)c1ccccc1` (stereo partly drawn) [Example 347, 8-chloro-6-(((S)-(1-cyclopropyl-1H-1,2,3-triazol-4-yl)(4-fluorophenyl)methyl)amino)-4-((3,3,3-trifluoro-1-phenylpropyl)amino)quinoline-3-carbonitrile], the negative logarithm of the EC50 (pEC50) in assay [1] was 6.11. Besides, the pIC50 in assay [2] was 7.62.

With `N#Cc1cnc2c(Cl)cc(N[C@@H](c3ccc(F)cc3)c3cn(C4CC4)nn3)cc2c1NCC1CCCOC1` (stereo partly drawn) [Example 348, 8-chloro-6-(((S)-(1-cyclopropyl-1H-1,2,3-triazol-4-yl)(4-fluorophenyl)methyl)amino)-4-(((tetrahydro-2H-pyran-3-yl)methyl)amino)quinoline-3-carbonitrile], the pEC50 in assay [1] was 5.92. Also, the pIC50 in assay [2] was 7.36.

For the compound `CC(F)(F)CNc1c(C#N)cnc2c(Cl)cc(N[C@@H](c3ccc(F)cc3)c3cn(C4CC4)nn3)cc12` [Example 349, (S)-8-chloro-6-(((1-cyclopropyl-1H-1,2,3-triazol-4-yl)(4-fluorophenyl)methyl)amino)-4-((2,2-difluoropropyl)amino)quinoline-3-carbonitrile], the pEC50 in assay [1] was 6.16. Further, in assay [2], the pIC50 was 6.88.

Turning to `CC(C)(CNc1c(C#N)cnc2c(Cl)cc(N[C@@H](c3ccc(F)cc3)c3cn(C4CC4)nn3)cc12)c1ccccc1` [Example 350, (S)-8-chloro-6-(((1-cyclopropyl-1H-1,2,3-triazol-4-yl)(4-fluorophenyl)methyl)amino)-4-((2-methyl-2-phenylpropyl)amino) quinoline-3-carbonitrile], the pEC50 in assay [1] was 6.41. Besides, the pIC50 in assay [2] was 8.05.

In the case of `[2H][C@](Nc1cc(C#N)c2ncc(C#N)c(Nc3cnc(F)c(F)c3)c2c1)(c1ccc(F)cc1)c1cn(C2CC2)nn1` [Example 351, (S)-6-(((1-cyclopropyl-1H-1,2,3-triazol-4-yl)(4-fluorophenyl)methyl-d)amino)-4-((5,6-difluoropyridin-3-yl)amino)quinoline-3,8-dicarbonitrile], in assay [1], the pEC50 was 6.69. The pIC50 in assay [2] was 8.22.

With `[2H][C@](Nc1cc(Cl)c2ncc(C#N)c(Nc3cnc(F)c(F)c3)c2c1)(c1ccc(F)cc1)c1c[nH]nn1` [Example 352, (S)-8-chloro-4-((5,6-difluoropyridin-3-yl)amino)-6-(((4-fluorophenyl) (1H-1,2,3-triazol-4-yl)methyl-d)amino) quinoline-3-carbonitrile], in assay [1], the pEC50 is 5.89. Further, the pIC50 in assay [2] is 7.68.

As for `N#Cc1cnc2c(Cl)cc(N[C@@H](c3ccc(F)cc3)c3c[nH]nn3)cc2c1Nc1cncc(F)c1` [Example 353, (S)-8-chloro-6-(((4-fluorophenyl)(1H-1,2,3-triazol-4-yl)methyl)amino)-4-((5-fluoropyridin-3-yl)amino)quinoline-3-carbonitrile], in assay [1], the pEC50 is 5.50. Also, the pIC50 in assay [2] is 6.98.

Regarding `[2H]C(Nc1cc(Cl)c2ncc(C#N)c(N[C@H](CC)c3ccccc3)c2c1)(c1ccc(F)cc1)c1cn(C2CC2)cn1` (stereo partly drawn) [Example 354, 8-chloro-6-(((1-cyclopropyl-1H-imidazol-4-yl)(4-fluorophenyl)methyl-d)amino)-4-(((R)-1-phenylpropyl)amino) quinoline-3-carbonitrile], in assay [1], the pEC50 is 6.16. Moreover, the pIC50 in assay [2] was 7.07.

Turning to `[2H]C(Nc1cc(Cl)c2ncc(C#N)c(Nc3cnc(F)c(F)c3)c2c1)(c1ccc(F)cc1)c1cn(C2CC2)cn1` (stereo not shown) [Example 355, 8-chloro-6-(((1-cyclopropyl-1H-imidazol-4-yl)(4-fluorophenyl)methyl-d)amino)-4-((5,6-difluoropyridin-3-yl)amino)quinoline-3-carbonitrile], the pEC50 in assay [1] is 5.33. Further, in assay [2], the pIC50 was 6.92.

As for `[2H][C@@](Nc1cc(Cl)c2ncc(C#N)c(NC3(c4ccccc4)CC3)c2c1)(c1cn(C2CC2)nn1)c1ccccc1Cl` [Example 356], the negative logarithm of the EC50 (pEC50) in assay [1] was 5.18. The pIC50 in assay [2] was 6.26.

Consider `[2H][C@@](Nc1cc(Cl)c2ncc(C#N)c(N[C@H](CC)c3ccccc3)c2c1)(c1cn(C2CC2)nn1)c1ccccc1Cl` [Example 357, 8-chloro-6-(((S)-(2-chlorophenyl)(1-cyclopropyl-1H-1,2,3-triazol-4-yl)methyl-d)amino)-4-(((R)-1-phenylpropyl)amino) quinoline-3-carbonitrile], for which the pEC50 in assay [1] was 6.28. In addition, the negative-log IC50 (pIC50) in assay [2] was 7.70.

For the compound `[2H][C@@](Nc1cc(Cl)c2ncc(C#N)c(Nc3cnc(F)c(F)c3)c2c1)(c1cn(C2CC2)nn1)c1ccccc1Cl` [Example 358, (S)-8-chloro-6-(((2-chlorophenyl)(1-cyclopropyl-1H-1,2,3-triazol-4-yl)methyl-d)amino)-4-((5,6-difluoropyridin-3-yl)amino)quinoline-3-carbonitrile], the pEC50 in assay [1] is 6.17. In addition, the pIC50 in assay [2] is 7.92.
